# Laboratory results as given in patent US20250332096A1, “BEVERAGE FORMULATION AND METHOD OF PROMOTING CELLULAR HYDRATION BY ENHANCING INTRACELLULAR PERMEATION” (Eastpond Laboratories Limited, priority 2024, published 2025).
# Legend:
# pH of test solutions = assay type: physicochemical; settings: purified water
# Experimental: (§1) 1:1 mol/mol stoichiometry complexes were prepared for the experiment. Nicotinic acid/alpha-CD complex was prepared by dissolving 11.22 g nicotinic acid and 98.63 g alpha-CD (89.66 g on dry basis) in 700 ml purified water. Nicotinamide/alpha-CD complex was prepared by dissolving 5.57 g nicotinamide and 49.3 g alpha-CD (44.4 g on dry basis) in 350 ml purified water and L-arginine/alpha-CD complex was prepared by dissolving 15.18 g L-arginine and 94.26 g alpha-CD (85.69 g on dry basis) in 700 ml purified water. Further, for all the three complexes, the liquid was frozen in dry ice bath and lyophilized. The dry lyophilizate was ground and sieved.
# (§2) Clarity, pH, conductivity, density, viscosity, turbidity, surface tension and osmolality were determined in solutions prepared with purified water. […]
# C. elegans [1] = experiment: C. elegans lifespan Test B (Example 6); assay type: in vivo
# Experimental: C. elegans study performed for the present disclosure is a follow-up and repetition of the observations carried out earlier (referred as Test A here). The results of the current C. elegans study (Test B) were recorded with higher number of animals compared to the Test A (50 worms per treated groups versus 130 worms per groups). Nematodes were maintained and propagated on Nematode Growth Medium—(NGM) containing plates and fed with Escherichia coli OP50 bacteria. The C. elegans strain used in this study is Bristol (N2) as wild-type. FIG. 21, illustrates the lifespan of control and alpha-cyclodextrin-treated worms. The control C. elegans lived on a medium made with tap water. The treated worms were maintained on culture media made with 0.1% alpha-cyclodextrin, 0.1% alpha-CD/nicotinic acid and 0.1% alpha-CD/arginine complex containing tap water.
# human aquaporin 1 (AQP1) = biological target: T1, human aquaporin 1 (AQP1) (Homo sapiens, UniProt P29972); experiment: Xenopus oocyte swelling assay, osmotic water permeability; assay type: cell-based; settings: 0.05% in water
# T1 construct: host or cells: Xenopus laevis oocytes (mRNA injection)
# T1 sequence (P29972 1-269): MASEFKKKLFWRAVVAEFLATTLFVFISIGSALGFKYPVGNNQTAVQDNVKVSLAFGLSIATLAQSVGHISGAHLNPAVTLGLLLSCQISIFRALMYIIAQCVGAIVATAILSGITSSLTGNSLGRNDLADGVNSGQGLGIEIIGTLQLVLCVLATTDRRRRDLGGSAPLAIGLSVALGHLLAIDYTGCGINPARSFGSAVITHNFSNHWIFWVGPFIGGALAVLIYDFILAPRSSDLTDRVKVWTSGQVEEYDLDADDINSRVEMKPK
# Experimental: They were then kept on ice for another 15 min before ovarectomy was performed. Ovaries were incubated in collagenase (Worthington Type II, 10 mg/ml) in calcium free Barth's solution (CFBS, NaCl 88 mM, KCl 1 mM, MgSO4 0.8 mM, TRIS-HCl 5 mM, NaHCO3 2.4 mM). Following defolliculation, oocytes were rinsed in normal Barth's solution (MBS, NaCl 88 mM, KCl 1 mM, CaCl2 0.4 mM, Ca(NO3)2 0.33 mM, MgSO4 0.8 mM, TRIS-HCl 5 mM, NaHCO3 2.4 mM) before they were transferred to 96-well plates. For nuclear injection of the different DNA's into the oocytes and for cytoplasmic injection of the mRNA encoding human Aquaporin-1 channels into the oocytes, the Roboocyte automated injection and recording system was used. (Human Aquaporine 1 cDNA cloned in expressing vector pGEM-T were purchased from Sino Biological Inc. Transcription to AQP1 mRNA was performed by an Ecocyte cooperation partner lab.) The mRNA injection volume was in the range 20-50 nl at a mRNA concentration of 100 ng/μl. After two to three days of incubation in Barth's solution supplemented with Gentamycin, water uptake of the Xenopus Oocytes through AQP1 channels was tested in a swelling assay using video microscopy. […] Normal frog ringer (NFR, NaCl 90 mM, KCl 2 mM, CaCl2 2 mM, MgCl2 1 mM, HEPES 5 mM, osmolarity 200 mOsm/1) was used as control solution and was prepared freshly on the day of the experiments. […]
# [2] = Visual inspection (clarity) of test solutions; assay type: physicochemical; settings: purified water
# Experimental: as §1, §2
# C. elegans [3] = experiment: C. elegans lifespan Test A (observations carried out earlier); assay type: in vivo; settings: day 15, 0.1%, 50 worms per group
# Experimental: C. elegans study performed for the present disclosure is a follow-up and repetition of the observations carried out earlier (referred as Test A here). The results of the current C. elegans study (Test B) were recorded with higher number of animals compared to the Test A (50 worms per treated groups versus 130 worms per groups). Nematodes were maintained and propagated on Nematode Growth Medium—(NGM) containing plates and fed with Escherichia coli OP50 bacteria. The C. elegans strain used in this study is Bristol (N2) as wild-type.
# [4] = Density measurements of test solutions; assay type: physicochemical; settings: Tap water
# Experimental: The current study further manifests the density measurements in a cyclodextrin concentration dependent manner.
# Water samples used were bottled water and tap water; wherein the tap water comprises the following impurities and properties: Free active chlorine (0.18 mg/1), Chloride (24 mg/1), Iron (6 μg/1), Manganese (2 μg/1), Nitrate (9 mg/1), Nitrite (<0.03 mg/1), Ammonium (<0.04 mg/1), Hardness of water (122 mg/l CaO), Conductivity (442 μS/cm) and pH 8. Purified water was produced by removal of dissolved ions by Merck/Millipore Synergy® Water Purification System at Cyclolab. The water quality produced Type 1 water (18.2 MΩ·cm at 25° C. ultrapure water) from pretreated water.
# as §1, §2
# However, it may not be established exactly which ionic species (Mg2+, Ca2+, Na+) causes this perturbation.
# [5] = Turbidity of test solutions; assay type: physicochemical; settings: purified water (reference), 0.05%
# Experimental: as §1, §2
structure (smiles),measurement,setting,value
"OC[C@H]1O[C@@H]2O[C@H]3[C@H](O)[C@@H](O)[C@@H](O[C@H]4[C@H](O)[C@@H](O)[C@@H](O[C@H]5[C@H](O)[C@@H](O)[C@@H](O[C@H]6[C@H](O)[C@@H](O)[C@@H](O[C@H]7[C@H](O)[C@@H](O)[C@@H](O[C@H]1[C@H](O)[C@H]2O)O[C@@H]7CO)O[C@@H]6CO)O[C@@H]5CO)O[C@@H]4CO)O[C@@H]3CO [Alpha Cyclodextrin, α-cyclodextrin]",pH,pH of test solutions; 0.05%,6.20
same,pH,pH of test solutions; 0.10%,6.36
same,pH,pH of test solutions; 1.00%,6.55
same,pH,pH of test solutions; 2.00%,6.70
same,Fraction of worms alive,"C. elegans [1]; Test B, day 15, 0.1%, 130 worms per group, tap water media",20%
same,effect on lifespan,"C. elegans [1]; all three studied concentrations (0.05, 0.1, 0.5%)",significant
same,average lifespan,C. elegans [1]; control animals 12.33 days,13.25 days
same,water permeation of human-aquaporin-expressed oocytes,human aquaporin 1 (AQP1),highest water permeation
same,Visual Inspection,[2]; 0.05%,clear
same,Visual Inspection,[2]; 0.10%,clear
same,Visual Inspection,[2]; 1.00%,clear
same,Visual Inspection,[2]; 2.00%,clear
same,Fraction of worms alive,C. elegans [3],25%
same,Density (at 22 C.),[4]; 0.05%,0.9992 ± 0.007 g/cm³
same,Density (at 22 C.),[4]; 0.10%,0.9994 ± 0.004 g/cm³
same,Density (at 22 C.),[4]; 1.00%,1.002 ± 0.007 g/cm³
same,Density (at 22 C.),[4]; 2.00%,1.009 ± 0.005 g/cm³
same,"Turbidity (Abs, λ = 410 nm)",[5],0.003 Abs
